Assay results taken from PMC7686313, “Phase 1 study of mTORC1/2 inhibitor sapanisertib (TAK-228) in advanced solid tumours, with an expansion phase in renal, endometrial or bladder cancer” (British Journal of Cancer, 2020).

Tests used:
[1] = Dose escalation: dose-limiting toxicities and maximum tolerated dose; assay type: in vivo
From the text: This Phase 1, open-label, dose-escalation and expansion study aimed to determine the safety, tolerability and preliminary efficacy of sapanisertib in patients with advanced solid tumours. During dose-escalation, patients received one of four sapanisertib dosing schedules: once daily (QD), once weekly (QW; days 1, 8, 15 and 22), QD for 3 days on/4 days off each week (QD × 3dQW; days 1–3, 8–10, 15–17 and 22–24) and QD for 5 days on/2 days off each week (QD × 5dQW; days 1–5, 8–12, 15–19 and 22–26) in a 28-day cycle with dose escalation based on a modified Fibonacci schema.
The maximum tolerated dose (MTD) was to be determined in the QD schedule before enrolment of initial single-patient cohorts for the QW and QDx3d QW schedules. […] Subsequent dose cohorts for that schedule included 3–6 patients. […] Once the MTD was identified for each of the dosing schedules, an additional six patients were enrolled to obtain further PK and safety data prior to expansion.

[2] = tested on: advanced solid tumours; assay: Tumour response according to RECIST v1.1, advanced solid tumours; assay type: in vivo, human; details: for Duration of partial response (PR): dose-escalation
Description: Patients who received ≥1 dose of sapanisertib were included in the safety population. The response-evaluable population included patients who received ≥1 dose of sapanisertib, had measurable disease at baseline, and had ≥1 postbaseline assessment. In the dose-escalation phase, the evaluable population included patients who received ≥75% of the planned sapanisertib doses in cycle 1 or experienced a DLT. Response was assessed according to the RECIST v1.1[24] after every two treatment cycles. Adverse events (AEs) were assessed using the National Cancer Institute Common Terminology Criteria for Adverse Events, v4.0. Patients were provided with a home blood-glucose meter to monitor their fasting predose blood-glucose measurements to assess hyperglycaemia as an on-target AE and PD marker.

[3] = tested on: renal cell carcinoma (RCC); assay: Tumour response according to RECIST v1.1, expansion phase, RCC; assay type: in vivo, human
From the text: (§1) Patients could be considered for enrolment in one of three disease-specific cohorts: (1) advanced or recurrent endometrial adenocarcinoma with disease progression following ≥1 prior chemotherapy regimen; (2) advanced/metastatic urothelial cancer (carcinoma of the bladder, ureter and/or renal pelvis), progressive after ≥1 prior therapy in the metastatic/unresectable setting; (3) advanced RCC after failure of ≥1 prior antivascular endothelial growth factor therapy with no prior TORC1 inhibitor therapy, or progressed on treatment with TORC1 inhibitor therapy.

[4] = tested on: endometrial cancer; assay: Tumour response according to RECIST v1.1, expansion phase, endometrial cancer; assay type: in vivo, human; details: expansion Endometrial cancer (n = 18)
From the text: as §1

[5] = dose-escalation QD 2–7 mg (n = 21)
[6] = dose-escalation QD × 3d 6–20 mg (n = 27)
[7] = dose-escalation QD × 5d 7–13 mg (n = 18)
[8] = dose-escalation QW 7–40 mg (n = 25)
[9] = expansion RCC TORC1 failure (n = 23)
[10] = expansion RCC TORC1 naïve (n = 18)

With `CC(C)n1nc(-c2ccc3oc(N)nc3c2)c2c(N)ncnc21` [Sapanisertib] the “Recommended Phase 2 dose” value ([1]; QD) was 5 mg, the DLTs ([1]; QD 4 mg) was “Grade 3 hyperglycaemia” and the DLTs ([1]; QD 6 mg) was “Grade 3 maculo-papular rash; grade 3 diarrhoea; grade 3 asthenia; grade 5 ventricular fibrillation/cardiac arrest”. The DLTs ([1]; QD 7 mg) was “Grade 3 hyperglycaemia and grade 4 anaemia; grade 3 maculo-papular rash”, the “Maximum tolerated dose (MTD)” value ([1]; QD schedule) was 6 mg and the DLTs ([1]; QD × 3dQW 9 mg) was “Grade 3 hypophosphatemia”. For the same compound, the DLTs ([1]; QD × 3dQW 12 mg) was “Grade 3 stomatitis and grade 3 dehydration; grade 3 asthenia”, the DLTs ([1]; QD × 3dQW 16 mg) was “Grade 3 stomatitis” and the DLTs ([1]; QD × 3dQW 20 mg) was “Grade 3 stomatitis; grade 3 stomatitis”. The “Maximum tolerated dose (MTD)” value ([1]; QD × 3dQW schedule) was 9 mg, the DLTs ([1]; QD × 5dQW 13 mg) was “Grade 3 fatigue; grade 3 asthenia; grade 3 stomatitis” and the “Maximum tolerated dose (MTD)” value ([1]; QD × 5dQW schedule) was 7 mg. The “Recommended Phase 2 dose” value ([1]; QW) was 30 mg, the DLTs ([1]; QW 40 mg) was “Grade 3 dry mouth and fatigue; grade 3 asthenia” and the “Maximum tolerated dose (MTD)” value ([1]; QW schedule) was 40 mg. For the same compound, the “Patients achieving PR” value ([2]; both phases) was “nine”, the “Patients with CR” value ([2]; both phases, 40 mg QW) was “One” and the “Best overall response CR” value [2, 5] was 0 n (%). The “Best overall response PD” value [2, 5] was 10 (48) n (%), the “Best overall response PR” value [2, 5] was 0 n (%) and the “Best overall response SD < 6 months” value [2, 5] was 9 (43) n (%). The “Best overall response SD ≥ 6 months” value [2, 5] was 2 (10) n (%), the “CBR (CR + PR + SD ≥ 6 months)” value [2, 5] was 2 (10) n (%) and the “ORR (CR + PR)” value [2, 5] was 0 n (%). The “Best overall response CR” value [2, 6] was 0 n (%), the “Best overall response PD” value [2, 6] was 14 (52) n (%) and the “Best overall response PR” value [2, 6] was 0 n (%). For the same compound, the “Best overall response SD < 6 months” value [2, 6] was 12 (44) n (%), the “Best overall response SD ≥ 6 months” value [2, 6] was 1 (4) n (%) and the “CBR (CR + PR + SD ≥ 6 months)” value [2, 6] was 1 (4) n (%). The “ORR (CR + PR)” value [2, 6] was 0 n (%), the “Best overall response CR” value [2, 7] was 0 n (%) and the “Best overall response PD” value [2, 7] was 12 (67) n (%). For the same compound, the “Best overall response PR” value [2, 7] was 1 (6) n (%), the “Best overall response SD < 6 months” value [2, 7] was 4 (22) n (%) and the “Best overall response SD ≥ 6 months” value [2, 7] was 1 (6) n (%). The “CBR (CR + PR + SD ≥ 6 months)” value [2, 7] was 2 (11) n (%), the “ORR (CR + PR)” value [2, 7] was 1 (6) n (%) and the “Best overall response CR” value [2, 8] was 0 n (%). For the same compound, the “Best overall response PD” value [2, 8] was 13 (52) n (%), the “Best overall response PR” value [2, 8] was 2 (8) n (%) and the “Best overall response SD < 6 months” value [2, 8] was 9 (36) n (%). For the same compound, the “Best overall response SD ≥ 6 months” value [2, 8] was 1 (4) n (%), the “CBR (CR + PR + SD ≥ 6 months)” value [2, 8] was 3 (12) n (%) and the “ORR (CR + PR)” value [2, 8] was 2 (8) n (%). The “Duration of partial response (PR)” value ([2]; one patient with carcinoid tumour receiving 10 mg QD × 5dQW) was over 32 months, the “Duration of partial response (PR)” value ([2]; two patients with RCC receiving 15 mg QW and 40 mg QW) was over 32 months and the “Best overall response CR” value [3, 9] was 0 n (%). For the same compound, the “Best overall response PD” value [3, 9] was 7 (30) n (%), the “Best overall response PR” value [3, 9] was 2 (9) n (%) and the “Best overall response SD < 6 months” value [3, 9] was 9 (39) n (%). The “Best overall response SD ≥ 6 months” value [3, 9] was 5 (22) n (%), the “CBR (CR + PR + SD ≥ 6 months)” value [3, 9] was 7 (30) n (%) and the “ORR (CR + PR)” value [3, 9] was 2 (9) n (%). For the same compound, the “Best overall response CR” value [3, 10] was 1 (6) n (%), the “Best overall response PD” value [3, 10] was 5 (28) n (%) and the “Best overall response PR” value [3, 10] was 3 (17) n (%). The “Best overall response SD < 6 months” value [3, 10] was 7 (39) n (%), the “Best overall response SD ≥ 6 months” value [3, 10] was 1 (6) n (%) and the “CBR (CR + PR + SD ≥ 6 months)” value [3, 10] was 5 (28) n (%). The “ORR (CR + PR)” value [3, 10] was 4 (22) n (%), the “Objective responses persisting for > 16 months” value ([3]; expansion phase) was “Four of the seven” and the “Duration of complete response (CR)” value ([3]; expansion, one patient with TORC1 inhibitor−naïve RCC receiving 40 mg QW) was 16 months. For the same compound, the “Best overall response CR” value [4] was 0 n (%), the “Best overall response PD” value [4] was 8 (44) n (%) and the “Best overall response PR” value [4] was 1 (6) n (%). For the same compound, the “Best overall response SD < 6 months” value [4] was 8 (44) n (%), the “Best overall response SD ≥ 6 months” value [4] was 0 n (%) and the “CBR (CR + PR + SD ≥ 6 months)” value [4] was 1 (6) n (%). The “ORR (CR + PR)” value [4] was 1 (6) n (%).
